From patent EP4458804A1, “METHOD FOR PRODUCING AN OBJECT, PHENALEN-1-ONE COMPOUND AND USE THEREOF” (TriOptoTec GmbH, priority 2023, dated 2024)

Legend:
[1] = Comparative example 26: highly polar photocatalysts in TPU films, 24 h immersion, film absorption before/after leaching; format: physicochemical; conditions: 30 min impregnation, 20h airing, immersion in distilled water 24h (procedure A), film absorption maximum before/after
Procedure: Es wurden TPU Folien eingesetzt und mit Imprägnierlösungen enthaltend die folgenden Farbstoffe behandelt. Nach 30 min Einwirkzeit wurden homogen gefärbte Folien erhalten.
Die Ablüftzeit nach Behandlung betrug 20h.
Anschließend wurde ein Belastungstest Immersion mit destilliertem Wasser über 24h durchgeführt (siehe oben beschriebenes Verfahren A) ). Die Folien wurden durch Absorptionsspektroskopie direkt vermessen und die Maximum der Absorption vor/nach Auswaschen verglichen. Es ergaben sich folgende relative Werte, die auf einen starken Austrag der Photokatalysatoren schließen lassen. Die Ergebnisse sind in der Tabelle 63 dargestellt. Tabelle 63: Einbindung von Photokatalysatoren in Kunsttofffolien

[2] = Comparative examples 23-25: impregnation of unsuitable plastics or with a fluorescent dye, visual evaluation; format: physicochemical; conditions: 0,2 mm starke Polycarbonatfolien; 60 min Einwirkzeit
Procedure: Die Farbstoffkonzentration in der Imprägnierlösung betrug jeweils 1 mM bei Phenalen-1-on- und Curcuminderivaten, 0,1 mM bei Prophycenderivaten.
Es wurden 0,2 mm starke Polycarbonatfolien eingesetzt und mit Imprägnierlösungen enthaltend die Photokatalysatoren F-24b, F-64a oder F-73 behandelt.
Es wurden TPU Folien eingesetzt und mit einer Imprägnierlösung enthaltend den Farbstoff 2-Chloro-6-(3-hydroxypropylamino)-1-phenalenon (CAS 113722-81-9) behandelt.

[3] = Incorporation of photocatalysts into TPU films versus process time, absorption spectroscopy against blank film (Beispiele 7a-9b); format: physicochemical; conditions: TPU Folie, Rezeptur 1; Beispiel 8a, Tabelle 44
Procedure: Im nächsten Schritt wurde die Verwendbarkeit der verschiedene Photokatalysatorklassen, ausgewählt aus Phenalen-1-on-Derivaten, Curcumin-Derivaten und Porphycen-Derivaten, mit unterschiedlichen Eigenschaften - von neutral unpolar bis ionisch polar - auf Ihre Verwendbarkeit und Wirkung im Verfahren untersucht.
Zur Beurteilung der optimalen Prozesszeit bei Einsatz der Photokatalysatoren, wurden TPU Folienstücke nach Beschreibung in Beispiel 4 zu je 1, 2, 5 und 10 min in den Imprägnierlösungen behandelt, gegebenenfalls auch 30 und 60 min bei undeutlichen Ergebnissen.
Als Basisformulierung wurde Rezeptur 1 nach Beispiel 2 verwendet.
Nach der angegebenen Prozesszeit wurden die Folie entnommen, mit Wasser gewaschen und für 1h bei 40°C getrocknet/abgelüftet.
Die Folien wurden durch Absorptionsspektroskopie gegen ein Blank-Folienstück direkt vermessen, beim Maximum der Absorption des Photokatalysators. Dabei ergaben sich in Abhängigkeit der Prozesszeit folgende Werte, die in den Tabellen 40 bis

S.aureus ATCC 6538 = experiment: Antibacterial activity of impregnated films, modified ISO 22196 with illumination (Beispiele 11-16, 25); format: cell-based; conditions: Beispiel 14; TPU film; Rezeptur 1 (nach Beispiel 1); 1 mM photocatalyst in impregnation solution; light 20mW/cm2 10min
[4] = Two-component system (kit of parts): impregnation of TPU films, visual colouring and resistance to rubbing/washing (Beispiel 6a/6b); format: physicochemical; conditions: TPU Folien; for Abreiben / Auswaschen der Färbung: feuchter Schwamm, Wasser
Source text: Um eine Mehrkomponenten-System bereitzustellen, bei dem vorzugsweise flüchtigere Hilfskomponenten, die gegebenenfalls regelmäßiger im Prozess ergänzt werden müssen, in einer separaten Komponente bereitgestellt werden können, wurde zunächst folgendes 2K-System getestet.
Grundkomponente (A): Eine Mischung aus 40,0% w/w Aceton, 30,0% w/w Isopropanol und […] w/w Wasser wurden homogen vermengt. Die Mischung war dicht verschlossen > 12 Monate bei Raumtemperatur lagerbar.
Zusatzkomponente (B): Eine Mischung aus 3,0% w/w Phenoxyethanol, 3,0% w/w EDTA und 0,1 bis 2,0 % Photokatalysator in Wasser wurden homogen verrührt. Die Mischung war dicht verschlossen in dunklen Flaschen > 6 Monate bei Raumtemperatur lagerbar.
Beide Lösungen wurden vor dem Prozess zu gleichen Teilen gemischt, gefolgt von einer 1:5 Verdünnung mit Wasser. Nach guter Durchmischung war die Lösung gebrauchsfertig.
Bei F-64a und F-73 war eine schwache Gelb- bzw.
Grundkomponente (A) enthielt eine Mischung aus 30,0% w/w Dimethylsuccinat, 33,0% w/w 1,2-Propandiol, 12,0% w/w Tween 20 und 25,0 % Wasser.
Zusatzkomponente (B) enthielt eine Mischung aus 2,0 Gew.-% Phenoxyethanol, 2,0 Gew.-% EDTA und 0,1 Gew.-% bis 1,6 Gew.-% Photokatalysator, jeweils bezogen auf das Gesamtgewicht der Zusatzkomponente (B), wobei die entsprechenden Bestandteile in Wasser gelöst wurden und anschließend homogen verrührt wurden.
Die Komponenten wurden vor Gebrauch im Verhältnis A zu B 2:1 gemischt, gefolgt von einer 1:1 Verdünnung mit Wasser. Nach guter Durchmischung war die Lösung gebrauchsfertig.

Cl.Cl.Cl.Cl.Cl.Cl.NCCOc1cc(/C=C/C(=O)CC(=O)/C=C/c2cc(OCCN)c(OCCN)c(OCCN)c2)cc(OCCN)c1OCCN [SACUR-05]
Verlust durch Auswaschen [1]: > 70%

NCCOc1ccc(/C=C/C(=O)CC(=O)/C=C/c2ccc(OCCN)cc2)cc1 [F-64a]
Verfärbung [2]: keine Verfärbung
Abs. 10 min [3]: 0,55
Log10 Reduktion Hauptprobe (S.aureus ATCC 6538): 2,6 ± 1,7 log10
Imprägnierung / Färbung der Folie ([4]; 2K-System Beispiel 6a (Aceton/Isopropanol)): schwache Gelb- bzw. Blaufärbung der Folie
Abreiben / Auswaschen der Färbung ([4]; 2K-System Beispiel 6a): weder mit einem feuchten Schwamm abreiben noch mit Wasser auswaschen ließ
Imprägnierung / Färbung der Folie ([4]; 2K-System Beispiel 6b (Dimethylsuccinat/1,2-Propandiol/Tween 20)): schwache Gelb- bzw. Blaufärbung der Folie
Abreiben / Auswaschen der Färbung ([4]; 2K-System Beispiel 6b): weder mit einem feuchten Schwamm abreiben noch mit Wasser auswaschen ließ

O=C1C=Cc2cccc3cccc1c23 [Phenalen-1-on (Verb.Bsp. 48)]
Verlust durch Auswaschen [1]: > 50%

2,7,12-Tris(pyridinio-p-tolyl)-17-(p-(methoxymethyl)phenyl) porphycen bromid
Verlust durch Auswaschen [1]: > 66%
